Measured values taken from US11338007B2, “Combination formulation of three antiviral compounds” (priority 2016, dated 2022).

Legend:
Assay type in all cases: physicochemical
[1] = Photostability of tablet cores and film-coated tablets per ICH Q1B (Table 12)
Protocol: Tablet cores and film-coated tablets were evaluated per ICH Q1B guidelines with a total of illumination of more than 1.2 million-lux hours and a total irradiance of more than 200 W·hr/m^2.

[2] = Stress studies: stability of tablets made with stressed VEL SSD/VOX SSD (water, residual solvent, peroxide, reprocessing, potency; Tables 16-21); details: for LS / Total Imp./Deg.: SSD water content study
Protocol: The impact of the following stressors on the physical and chemical stability of the sofosbuvir/velpatasvir SSD/voxilaprevir SSD tablets were evaluated:
(i) Voxilaprevir SSD and velpatasvir SSD, and sofosbuvir/velpatasvir SSD/voxilaprevir SSD tablet water content;
(ii) Copovidone peroxide content in velpatasvir SSD and in voxilaprevir SSD (iii) Reprocessed velpatasvir SSD and voxilaprevir SSD;
(iv) Voxilaprevir SSD and velpatasvir SSD potency (varying the ratio of velpatasvir or voxilaprevir to copovidone); and
(v) Seeding sofosbuvir/velpatasvir SSD/voxilaprevir SSD tablets with crystalline voxilaprevir Form VIII and Form X drug substances.

[3] = Impact of desiccant and packaging configuration on tablet stability (Tables 24A-24C); details: for I/D (%) / LS (%): tablets;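 on all read-outs here: stability of tablets stored with different desiccant amounts and packaging configurations, evaluating physical and chemical stability plus dissolution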
[4] = film-coating 0% weight gain, Exposed to Light
[5] = film-coating 2.1% weight gain, Exposed to Light
[6] = film-coating 2.1% weight gain, Protected from Light
[7] = film-coating 3.4% weight gain, Exposed to Light
[8] = film-coating 3.4% weight gain, Protected from Light
[9] = film-coating 4.1% weight gain, Exposed to Light
[10] = film-coating 4.1% weight gain, Protected from Light
[11] = film-coating 5.4% weight gain, Protected from Light
[12] = open (no desiccant), 40° C./75% RH, 4 weeks
[13] = tablets from SSDs with copovidone peroxides 544 ppm (VEL SSD), 655 ppm (VOX SSD), Initial, time 0
[14] = tablets from SSDs with copovidone peroxides 544 ppm (VEL SSD), 655 ppm (VOX SSD), closed, 1 g desiccant, 25° C./60% RH, 12 weeks
[15] = tablets from SSDs with copovidone peroxides 544 ppm (VEL SSD), 655 ppm (VOX SSD), closed, 1 g desiccant, 40° C./75% RH, 4 weeks
[16] = tablets from SSDs with copovidone peroxides 544 ppm (VEL SSD), 655 ppm (VOX SSD), closed, 1 g desiccant, 40° C./75% RH, 12 weeks
[17] = tablets from SSDs with copovidone peroxides 544 ppm (VEL SSD), 655 ppm (VOX SSD), open, no desiccant, 40° C./75% RH, 4 weeks
[18] = tablets from VEL SSD 6.0% residual ethanol, VOX SSD 2.1% residual acetone, Initial, time 0
[19] = tablets from VEL SSD 6.0% residual ethanol, VOX SSD 2.1% residual acetone, closed, 1 g desiccant, 25° C./60% RH, 12 weeks
[20] = tablets from VEL SSD 6.0% residual ethanol, VOX SSD 2.1% residual acetone, closed, 1 g desiccant, 40° C./75% RH, 4 weeks
[21] = tablets from VEL SSD 6.0% residual ethanol, VOX SSD 2.1% residual acetone, closed, 1 g desiccant, 40° C./75% RH, 12 weeks
[22] = tablets from VEL SSD 6.0% residual ethanol, VOX SSD 2.1% residual acetone, open, no desiccant, 40° C./75% RH, 4 weeks
[23] = tablets from VEL SSD 7.0% water, VOX SSD 3.2% water, Initial, time 0
[24] = tablets from VEL SSD 7.0% water, VOX SSD 3.2% water, closed, 1 g desiccant, 25° C./60% RH, 12 weeks
[25] = tablets from VEL SSD 7.0% water, VOX SSD 3.2% water, closed, 1 g desiccant, 40° C./75% RH, 4 weeks
[26] = tablets from VEL SSD 7.0% water, VOX SSD 3.2% water, closed, 1 g desiccant, 40° C./75% RH, 12 weeks
[27] = tablets from twice reprocessed VEL SSD and VOX SSD, Initial, time 0
[28] = tablets from twice reprocessed VEL SSD and VOX SSD, closed, 1 g desiccant, 25° C./60% RH, 12 weeks
[29] = tablets from twice reprocessed VEL SSD and VOX SSD, closed, 1 g desiccant, 40° C./75% RH, 4 weeks
[30] = tablets from twice reprocessed VEL SSD and VOX SSD, closed, 1 g desiccant, 40° C./75% RH, 12 weeks
[31] = tablets from twice reprocessed VEL SSD and VOX SSD, open, no desiccant, 40° C./75% RH, 4 weeks
[32] = closed, 1 g desiccant, 25° C./60% RH, 12 weeks
[33] = closed, 1 g desiccant, 25° C./60% RH, 24 weeks
[34] = closed, 1 g desiccant, 40° C./75% RH, 4 weeks
[35] = closed, 1 g desiccant, 40° C./75% RH, 12 weeks
[36] = closed, 1 g desiccant, 40° C./75% RH, 24 weeks
[37] = closed, 3 g desiccant, 25° C./60% RH, 12 weeks
[38] = closed, 3 g desiccant, 25° C./60% RH, 24 weeks
[39] = closed, 3 g desiccant, 40° C./75% RH, 4 weeks
[40] = closed, 3 g desiccant, 40° C./75% RH, 12 weeks
[41] = closed, 3 g desiccant, 40° C./75% RH, 24 weeks
[42] = closed, no desiccant, 25° C./60% RH, 12 weeks
[43] = closed, no desiccant, 25° C./60% RH, 24 weeks
[44] = closed, no desiccant, 40° C./75% RH, 4 weeks
[45] = closed, no desiccant, 40° C./75% RH, 12 weeks
[46] = closed, no desiccant, 40° C./75% RH, 24 weeks
[47] = desiccant study, Initial, time 0

CC(C)OC(=O)C(C)N[P@](=O)(OC[C@H]1O[C@@H](n2ccc(=O)[nH]c2=O)[C@](C)(F)[C@@H]1O)Oc1ccccc1 (stereo in doubt) [sofosbuvir, (S)-isopropyl 2-(((S)-(((2R,3R,4R,5R)-5-(2,4-dioxo-3,4-dihydropyrimidin-1(2H)-yl)-4-fluoro-3-hydroxy-4-methyltetrahydrofuran-2-yl)methoxy)(phenoxy)phosphoryl)amino)propanoate]
100.9%: LS (%) [2, 21] | LS (%) [2, 22]
0.0%: Total Imp./Deg. Products [1, 4] | Total Imp./Deg. Products ([1]; film-coating 0% weight gain, Protected from Light) | Total Imp./Deg. Products [1, 5] | Total Imp./Deg. Products [1, 6] | Total Imp./Deg. Products [1, 7] | Total Imp./Deg. Products [1, 8] | Total Imp./Deg. Products [1, 9] | Total Imp./Deg. Products [1, 10] | Total Imp./Deg. Products ([1]; film-coating 5.4% weight gain, Exposed to Light) | Total Imp./Deg. Products [1, 11] | level of degradation products ([1]; tablets film-coated to weight gains 2.1 to 5.4%) | total impurities/degradation products ([2]; SSD potency study, tablet Lots A-D, all conditions) | Total Imp./Deg. ([2]; Initial) | Total Imp./Deg. [2, 12] | total impurities/degradation products ([2]; tablets from SSDs with copovidone 544 ppm (VEL SSD) and 655 ppm (VOX SSD) peroxides) | Total Imp./Deg. (%) [2, 13] | Total Imp./Deg. (%) [2, 14] | Total Imp./Deg. (%) [2, 15] | Total Imp./Deg. (%) [2, 16] | Total Imp./Deg. (%) [2, 17] | total impurities/degradation products ([2]; tablets from VEL SSD 6.0% residual ethanol and VOX SSD 2.1% residual acetone, all conditions) | Total Imp./Deg. (%) [2, 18] | Total Imp./Deg. (%) [2, 19] | Total Imp./Deg. (%) [2, 20] | Total Imp./Deg. (%) [2, 21] | Total Imp./Deg. (%) [2, 22] | total impurities/degradation products ([2]; tablets from VEL SSD 7.0% and VOX SSD 3.2% water content, all conditions) | Total Imp./Deg. (%) [2, 23] | Total Imp./Deg. (%) [2, 24] | Total Imp./Deg. (%) [2, 25] | Total Imp./Deg. (%) [2, 26] | Total Imp./Deg. (%) [2, 27] | total impurities/degradation products ([2]; tablets from twice reprocessed VEL SSD and VOX SSD, all conditions) | Total Imp./Deg. (%) [2, 28] | Total Imp./Deg. (%) [2, 29] | Total Imp./Deg. (%) [2, 30] | Total Imp./Deg. (%) [2, 31] | total impurities/degradation products ([3]; desiccant study (0, 1, 3 g), all conditions, 6 months) | I/D (%) [3, 32] | I/D (%) [3, 33] | I/D (%) [3, 34] | I/D (%) [3, 35] | I/D (%) [3, 36] | I/D (%) [3, 37] | I/D (%) [3, 38] | I/D (%) [3, 39] | I/D (%) [3, 40] | I/D (%) [3, 41] | I/D (%) [3, 42] | I/D (%) [3, 43] | I/D (%) [3, 44] | I/D (%) [3, 45] | I/D (%) [3, 46] | I/D (%) [3, 47]
100.0%: LS (%) ([2]; tablets Lot D (super-potent VEL SSD, sub-potent VOX SSD), Initial, time 0) | LS (%) [2, 13] | LS (%) [3, 34] | LS (%) [3, 39]
100.3%: LS (%) ([2]; tablets Lot A (super-potent VEL SSD, super-potent VOX SSD), open, without cap, 40° C./75% RH, 4 weeks) | LS (%) [2, 17] | LS (%) [2, 29] | LS (%) [3, 37] | LS (%) [3, 45]
100.7%: LS (%) [2, 27]
99.5%: LS (%) ([2]; tablets Lot C (sub-potent VEL SSD, super-potent VOX SSD), Initial, time 0) | LS (%) ([2]; tablets Lot D (super-potent VEL SSD, sub-potent VOX SSD), closed, 1 g desiccant, 25° C./60% RH, 12 weeks)
102.0%: LS [1, 9]
96.4%: LS (%) [2, 31]
99.0%: LS (%) ([2]; tablets Lot A (super-potent VEL SSD, super-potent VOX SSD), closed, 1 g desiccant, 25° C./60% RH, 12 weeks)
99.3%: LS (%) [2, 14] | LS (%) [2, 15] | LS (%) [3, 32] | LS (%) [3, 42]
102.1%: LS (%) [3, 47]
99.4%: LS (%) ([2]; tablets Lot B (sub-potent VEL SSD, sub-potent VOX SSD), closed, 1 g desiccant, 25° C./60% RH, 12 weeks) | LS (%) ([2]; tablets Lot C (sub-potent VEL SSD, super-potent VOX SSD), open, without cap, 40° C./75% RH, 4 weeks) | LS (%) [3, 35]
101.0%: LS [1, 11]
101.8%: LS [1, 8]
101.6%: LS (%) [2, 25] | LS (%) [3, 38]
99.8%: LS (%) ([2]; tablets Lot A (super-potent VEL SSD, super-potent VOX SSD), closed, 1 g desiccant, 40° C./75% RH, 12 weeks) | LS (%) ([2]; tablets Lot B (sub-potent VEL SSD, sub-potent VOX SSD), closed, 1 g desiccant, 40° C./75% RH, 4 weeks) | LS (%) ([2]; tablets Lot D (super-potent VEL SSD, sub-potent VOX SSD), open, without cap, 40° C./75% RH, 4 weeks)
99.6%: LS (%) ([2]; tablets Lot C (sub-potent VEL SSD, super-potent VOX SSD), closed, 1 g desiccant, 25° C./60% RH, 12 weeks) | LS (%) ([2]; tablets Lot C (sub-potent VEL SSD, super-potent VOX SSD), closed, 1 g desiccant, 40° C./75% RH, 4 weeks)
98.9%: LS (%) ([2]; tablets Lot D (super-potent VEL SSD, sub-potent VOX SSD), closed, 1 g desiccant, 40° C./75% RH, 12 weeks) | LS (%) [2, 16]
99.9%: LS (%) ([2]; tablets Lot A (super-potent VEL SSD, super-potent VOX SSD), closed, 1 g desiccant, 40° C./75% RH, 4 weeks) | LS (%) ([2]; tablets Lot B (sub-potent VEL SSD, sub-potent VOX SSD), Initial, time 0) | LS (%) [2, 24] | LS (%) [2, 28] | LS (%) [3, 40]
100.1%: LS (%) ([2]; tablets Lot A (super-potent VEL SSD, super-potent VOX SSD), Initial, time 0) | LS (%) ([2]; tablets Lot B (sub-potent VEL SSD, sub-potent VOX SSD), open, without cap, 40° C./75% RH, 4 weeks) | LS (%) ([2]; tablets Lot D (super-potent VEL SSD, sub-potent VOX SSD), closed, 1 g desiccant, 40° C./75% RH, 4 weeks)
101.2%: LS [1, 6] | LS [1, 10] | LS [2, 12] | LS (%) [2, 18]
no change: loss after exposure to light ([1]; uncoated tablet cores)
100.4%: LS (%) [2, 26] | LS (%) [3, 33] | LS (%) [3, 46]
101.5%: LS [1, 4] | LS (%) [2, 20]
101.7%: LS [1, 5] | LS (%) [3, 36]
99.1%: LS (%) ([2]; tablets Lot C (sub-potent VEL SSD, super-potent VOX SSD), closed, 1 g desiccant, 40° C./75% RH, 12 weeks) | LS (%) [2, 30]
100.2%: LS (%) [3, 43]
102.3%: LS (%) [3, 41]
98.7%: LS (%) ([2]; tablets Lot B (sub-potent VEL SSD, sub-potent VOX SSD), closed, 1 g desiccant, 40° C./75% RH, 12 weeks)
101.4%: LS (%) [3, 44]
100.6%: LS [1, 7]
100.5%: LS ([2]; Initial) | LS (%) [2, 19] | LS (%) [2, 23]
